Test results published in US8013112B2, “Compositions comprising human brain natriuretic peptide (BNP) fragments” (Abbott Laboratories, priority 2006, dated 2011).
Bridges are numbered along the chain shown (N, C = ends). Roman numbers before positions name the chains, in order. Where no end group is shown, it is not given here.

What was measured:
[1] = assay type: in vitro ADME, human
Protocol: EDTA plasma of healthy human subjects and human BNP plasma specimens were obtained from ProMedDx LLC (Norton, Mass.), shipped on dry ice, and stored at −70° C. before use.
In this study, human BNP degradation products in human BNP specimens and the impact of temperature on degradation was studied. Prior to sample extractions for analysis, each sample was split into two vials and incubated at room temperature for 0 hours (t=0 hour) and 48 hours (t=48 hours), respectively. The samples were then extracted using the methodology described in Example 4 and analyzed by the API 4000.
Experiments were conducted to determine if human BNP n-32 fragments (where n is an interger b=1, 2, 3, 4, 5, 6) were present in the specimen and to evaluate whether aminopeptidase type protease is involved in human BNP degradation. The samples were prepared and analyzed using the same methodology as described in Example 4, except that samples were monitored for human BNP n-32 fragments (n=1, 2, 3, 4, 5, 6[…]).
Next, to determine if ring cleavage products were present, human BNP fragment 5-32x was then monitored prior to and after incubation at room temperature. The samples were not monitored for other human BNP n-32x fragments since these fragments would be formed by the same process as human BNP 5-32x fragments. Additionally, monitoring for more fragments would reduce the detection sensitivity of the method.
Using both of these approaches, human BNP fragments prior to and after room temperature incubation were monitored for both human BNP n-32 fragments and human BNP n-32x fragments for 20 samples.

[2] = assay type: in vitro ADME, human; remark: listed apart in the source
Protocol: Human BNP was spiked into Human BNP specimens (EDTA plasma) using the same procedure as in Example 2, and the spiked samples were studied using the same methodology as in Example 4. […] However, the cleavage rates appeared to be slower in the heart-failure patient samples: after 8 hours incubation at the room temperature, 80% of the degradation products still contain the C-terminus (human BNP fragment 3-32, human BNP 1-32, and human BNP fragments 3-32X and 1-32x). When the same concentration of human BNP was spiked into a pooled EDTA plasma of healthy human subjects, only 5% of the fragments contain intact C-terminus after 4 hours incubation at room temperature (See, Example 5).

[3] = Degradation time course of human BNP 1-32 spiked in pooled EDTA plasma of healthy human subjects, LC/MS
Excerpt: An aliquot of the mixture was taken at various time points with protease inhibitor added and frozen immediately. Samples were extracted along with an internal standard (the internal standard was a biotinylated human BNP mutant. In this mutant, amino acid 32 (histidine) was replaced by alanine and is hereinafter referred to as “Biotin-BNP1-32 (H32A)”) by a monoclonal antibody 106.3 (hereinafter referred to as “mAb 106.3”) coated magnetic microparticles and released human BNP and fragments were analyzed by LC/MS. The relative abundance of each fragments were plotted.
To study human BNP degradation near physiological concentration, an API4000 LC/MS system (Applied Biosystems, Foster City, Calif.) equipped with Agilent 1100 HPLC was used to determine the degradation of human BNP spiked at 5 ng/mL in a pooled normal EDTA plasma. […] The major human BNP degradation products (namely, 1-32, 3-32, 3-30, and 3-30x) and kinetics were analyzed by LC/MS using selected ion monitoring mode according to instrument protocol. […]
The relative concentration of human BNP fragments 3-32, 3-30 and 3-30x were monitored at various time points (0.5, 4, 6, 8, 10, 24 hours). Triply charged human BNP peptides and human BNP fragments, namely, 1-32, 3-32, 3-30, and 3-30x were monitored at m/z 1155.6, 1094.6.

Molecule | Human BNP fragment Peak high ranking (T = 0 hours) [1] | degradation products that still contain the C-terminus [2] [%] | relative concentration over the time course of study ([3]; human BNP spiked at 5 ng/mL in pooled normal EDTA plasma, room temperature, 0.5-24 hours (FIG. 7)) | fragments that contain intact C-terminus ([3]; human BNP spiked in pooled EDTA plasma of healthy human subjects, after 4 hours incubation at room temperature) [%] | major cleavage product after incubation at room temperature [1]
CC[C@H](C)[C@@H]1NC(=O)[C@H](CCCNC(=N)N)NC(=O)[C@H](CC(=O)O)NC(=O)[C@H](CCSC)NC(=O)[C@H](CCCCN)NC(=O)[C@H](CCCNC(=N)N)NC(=O)CNC(=O)[C@H](Cc2ccccc2)NC(=O)[C@@H](NC(=O)CNC(=O)[C@H](CO)NC(=O)CNC(=O)[C@H](CCC(N)=O)NC(=O)[C@@H](NC(=O)[C@H](CCSC)NC(=O)[C@H](CCCCN)NC(=O)[C@@H]2CCCN2C(=O)[C@@H](N)CO)C(C)C)CSSC[C@@H](C(=O)N[C@@H](CCCCN)C(=O)N[C@H](C(=O)N[C@@H](CC(C)C)C(=O)N[C@@H](CCCN=C(N)N)C(=O)N[C@@H](CCCN=C(N)N)C(=O)N[C@@H](Cc2cnc[nH]2)C(=O)O)C(C)C)NC(=O)CNC(=O)[C@H](CC(C)C)NC(=O)CNC(=O)[C@H](CO)NC(=O)[C@H](CO)NC(=O)[C@H](CO)NC(=O)[C@H](CO)NC1=O [1-32] | 3 | 80 | decreased drastically | 5 | –
3-30x: Human BNP Fragment Composition: 3-30 with ring cleavage, two fragments (e.g. BNP3-17 and BNP18-30) cross-linked by disulfide bond (chain 1 KMVQGSGCFGRKMDR; chain 2 ISSSSGLGCKVLR; disulfide I:8-II:9 (inferred)) | 5 | – | – | – | –
5-32x: ring-cleaved, cross-linked form of human BNP fragment 5-32 | – | – | – | – | become the major product
5-30x: Human BNP Fragment Composition 5-30x: ring-cleaved, cross-linked form of fragment 5-30 | 4 | – | – | – | –
